According to article PMC8912008, “Pharmacokinetic Study of Withanosides and Withanolides from Withania somnifera Using Ultra-High Performance Liquid Chromatography-Tandem Mass Spectrometry (UHPLC-MS/MS)” (Molecules, 2022):

How the values were obtained:
in vitro = conditions: rat
[1] = Stability of analytes in rat plasma; conditions: n = 6; for Processed sample stability (% ± SD): processed rat plasma sample, 4 h; for Bench top Stability (% ± SD) / Autosampler stability (% ± SD) / Freeze-thaw stability (% ± SD): rat plasma; for Bench top Stability (% ± SD): 25 °C for 4 h; for Freeze-thaw stability (% ± SD): three freeze/thaw cycles
[2] = In vivo pharmacokinetic study after oral WSE
Source text: It is known that the hydrophobic interior surface of the cell membrane (lipid bilayer) serves as a barrier to the passage of polar and high molecular weight molecules.
Food pellets and tap water were provided ad libitum throughout the experimentation. The protocol to carry out in vivo pharmacokinetics was approved by The Institutional Animal Ethics Committee (IAEC) of Crystal Biological Solution, Pune, Maharashtra, India. […] Eighteen animals were subdivided into three groups, (n = 6) animals in each group. Withania somnifera extract suspension was prepared in water for oral administration, and the dose was calculated based on the acute oral toxicity study (500 mg/kg; single dose). […] The separated plasma samples were transferred into Eppendorf tubes and stored at −80 °C in a deep freezer until analysis. Ten pharmacokinetic parameters were determined using PK solver 2.0, USA [45, 46, 47]. The maximum observed concentration (Cmax) and maximum observed time (Tmax) were calculated directly from the experimental results. The elimination rate constant (Kel) was calculated from the slope of the linear regression of Log concentrations as a function of time. […] The area under the curve (AUC(0–t)) was calculated from the linear curve following the trapezoidal rule, while AUC(0–∞) was calculated by adding Ct/λ, with Ct being the final measurable concentration. Oral clearance (Cl/F) was obtained from the equation Cl/F = dose/AUC(0–∞). Mean residence time (MRT) was calculated as AUMC(0–∞)/AUC(0–∞), where AUMC(0–∞) is the area under the first moment curve. […] The pharmacokinetic parameters as the average of six rats ± SD. The mean plasma concentration Vs. time curve (mean ± SD) was prepared using Prism 8.2, (GraphPad, San Diego, CA, USA).

[3] = high QC (nominal 200.50-201.50 ng/mL)
[4] = low QC (nominal 10.05-10.50 ng/mL)
[5] = male, Sprague Dawley, rat, in vivo, po, 500 mg/kg

In the case of `CC1=C(C)C(=O)O[C@@H]([C@@H](C)[C@H]2CC[C@H]3[C@@H]4[C@@H]5O[C@@H]5[C@@]5(O)CC=CC(=O)[C@]5(C)[C@H]4CC[C@]23C)C1` [Withanolide B], the Papp at 1 h, 2 mg/mL (in vitro) is reported as 0.0131 ×10⁻⁶ cm/s, the “Processed sample stability (% ± SD)” value [1, 3] is reported as 95.01 ± 5.83% and the “Processed sample stability (% ± SD)” value [1, 4] is reported as 113.48 ± 47.73%. The “Bench top Stability (% ± SD)” value [1, 3] was 96.83 ± 6.66%, the “Bench top Stability (% ± SD)” value [1, 4] was 95.51 ± 5.04% and the “Autosampler stability (% ± SD)” value [1, 3] was 97.26 ± 3.36%. For the same compound, the “Autosampler stability (% ± SD)” value [1, 4] was 98.84 ± 4.54%, the “Freeze-thaw stability (% ± SD)” value [1, 3] was 93.48 ± 6.55% and the “Freeze-thaw stability (% ± SD)” value [1, 4] was 116.31 ± 36.76%.
With `CC1=C(C)C(=O)O[C@@H]([C@@H](C)[C@@]2(O)CC[C@H]3[C@@H]4[C@@H]5O[C@@H]5[C@@]5(O)CC=CC(=O)[C@]5(C)[C@H]4CC[C@@]32C)C1` [Withanone] the concentration in plasma ([2]; rat plasma after WSE 500 mg/kg oral, LLOQ 3 ng/mL) was “below LLOQ”, the Papp at 1 h, 2 mg/mL (in vitro) was 0.0317 ×10⁻⁶ cm/s and the “Processed sample stability (% ± SD)” value [1, 3] was 99.56 ± 4.91%. The “Processed sample stability (% ± SD)” value [1, 4] was 112.07 ± 37.93%, the “Bench top Stability (% ± SD)” value [1, 3] was 98.87 ± 9.47% and the “Bench top Stability (% ± SD)” value [1, 4] was 96.31 ± 6.27%. The “Autosampler stability (% ± SD)” value [1, 3] was 111.25 ± 4.86%, the “Autosampler stability (% ± SD)” value [1, 4] was 109.47 ± 4.01% and the “Freeze-thaw stability (% ± SD)” value [1, 3] was 98.14 ± 4.74%. The “Freeze-thaw stability (% ± SD)” value [1, 4] was 104.24 ± 7.98%.
Work on `CC1=C(CO)C(=O)O[C@@H]([C@@H](C)[C@H]2CC[C@H]3[C@@H]4CC=C5C[C@@H](O[C@@H]6O[C@H](CO[C@@H]7O[C@H](CO)[C@@H](O)[C@H](O)[C@H]7O)[C@@H](O)[C@H](O)[C@H]6O)C[C@H](O)[C@]5(C)[C@H]4CC[C@]23C)C1` [Withanoside IV] yielded an AUC(0-inf) [2, 5] of 22.9 ± 5.73 ng·h/mL, an AUC(0-t) [2, 5] of 14 ± 3.7 ng·h/mL and a Cmax [2, 5] of 13.8 ± 3.73 ng/mL. It also gave an MRT inf [2, 5] of 2.08 ± 0.394 h, a Tmax [2, 5] of 0.75 h and a half-life [2, 5] of 1.1 ± 0.272 h. The k el [2, 5] was 0.000182 s⁻¹, the “Cl/F (oral clearance)” value ([2]; rat, in vivo, po, 500 mg/kg) was 0.176 ± 0.037 and the “Vdapp (mean apparent volume of distribution)” value ([2]; rat, in vivo, po, 500 mg/kg) was 0.278 ± 0.083. For the same compound, the “oral clearance (Cl/F)” value ([2]; rat, in vivo, po, 500 mg/kg) was 0.176 ± 0.037 (mg/kg)/(ng/mL)/h, the Papp at 1 h, 2 mg/mL (in vitro) was 0.142 ×10⁻⁶ cm/s and the “Processed sample stability (% ± SD)” value [1, 3] was 101.10 ± 9.54%. The “Processed sample stability (% ± SD)” value [1, 4] was 104.41 ± 4.84%, the “Bench top Stability (% ± SD)” value [1, 3] was 100.34 ± 10.45% and the “Bench top Stability (% ± SD)” value [1, 4] was 104.41 ± 4.84%. For the same compound, the “Autosampler stability (% ± SD)” value [1, 3] was 111.61 ± 0.88%, the “Autosampler stability (% ± SD)” value [1, 4] was 108.21 ± 2.00% and the “Freeze-thaw stability (% ± SD)” value [1, 3] was 98.95 ± 5.47%. For the same compound, the “Freeze-thaw stability (% ± SD)” value [1, 4] was 104.78 ± 5.59%.
With `CC1=C(C)C(=O)O[C@@H]([C@@H](C)[C@H]2CC[C@H]3[C@@H]4CC=C5C[C@@H](O[C@@H]6O[C@H](CO[C@@H]7O[C@H](CO)[C@@H](O)[C@H](O)[C@H]7O)[C@@H](O)[C@H](O)[C@H]6O)C[C@H](O)[C@]5(C)[C@H]4CC[C@]23C)C1` [Withanoside V] the Papp at 1 h, 2 mg/mL (in vitro) was 0.0343 ×10⁻⁶ cm/s, the “Processed sample stability (% ± SD)” value [1, 3] was 90.47 ± 6.50% and the “Processed sample stability (% ± SD)” value [1, 4] was 134.85 ± 90.10%. For the same compound, the “Bench top Stability (% ± SD)” value [1, 3] was 91.74 ± 8.97%, the “Bench top Stability (% ± SD)” value [1, 4] was 99.58 ± 8.68% and the “Autosampler stability (% ± SD)” value [1, 3] was 111.25 ± 4.54%. The “Autosampler stability (% ± SD)” value [1, 4] was 109.83 ± 8.35%, the “Freeze-thaw stability (% ± SD)” value [1, 3] was 99.38 ± 6.58% and the “Freeze-thaw stability (% ± SD)” value [1, 4] was 105.13 ± 6.95%.
